Patent publication US11117859B1, “Pleuromutilin hippuric acid ester with antibacterial activity and a method of preparing the same” (SHAANXI UNIVERSITY OF SCIENCE AND TECHNOLOGY, priority 2021, dated 2021)

Experiments:
Type in all cases: cell-based
[1] = system: multi-resistant Staphylococcus aureus 596; assay: paper diffusion method drug sensitivity test, MRSA-596; settings: for Zone of Inhibition: MRSA-596, 30 μg/tablet paper disc (6.35 mm), LB plate, 37° C., 24 h; for inhibitory effect (in words): multi-drug resistant Staphylococcus aureus 596, 30 μg/tablet
Experimental: (§1) The antimicrobial efficacy was determined by a paper diffusion method drug sensitivity test.
(§2) Experimental strains: multi-resistant Staphylococcus aureus 171, multi-resistant Staphylococcus aureus 575, multi-resistant Staphylococcus aureus 596. The experimental strain was identified by Huashan Hospital, Fudan University (Institute of Antibiotic of Fudan University).
(§3) Drug sensitive paper: The drug sensitive paper was a special drug sensitive paper with a diameter of 6.35 mm and a water absorption of 0.02 mL. The control drug was vancomycin (30 μg/tablet); the test drugs were pleuromutilin (30 μg/tablet), hippuric acid (30 μg/tablet) and pleuromutilin hippuric acid ester (30 μg/tablet).
(§4) Reagents: LB agar medium, LA broth medium, 0.5% DMSO solution.
(§5) The experimental strains were inoculated in non-selective medium and placed in air at 37° C. for 24 h. A single colony that grows well and inoculate it into broth medium was incubate at 35° C.±2° C. for 6 hours, and LA broth medium was used to calibrate the concentration of the bacterial solution to 0.5 Mie turbidimetric tube (1.5×10^8 CFU/mL). A bacterial suspension was obtained.
(§6) LB dry powder was weighed, sterilized at 103.4 Kpa, 121.3° C. high-pressure steam for 15 min, and then placed it in a 40° C.-50° C. water bath. A sterile empty plate (inner diameter 9 cm) was placed on the surface of the ultra-clean table water table, and […] was poured to the plate. The thickness of each plate was 3 mm to 4 mm. After the plate was cooled at room temperature, it was stored in the refrigerator at 2° C.-8° C. A sterile cotton swab was used to dip the bacterial solution and ti evenly coat the surface of the LB plate 3 times. After inoculation of the bacterial suspension, the LB plate was dried at room temperature for 3 min to 5 min. Sterile forceps were used to closely attach the antibacterial drug paper to the dish. The dish was put upside down and placed in a 37° C. incubator for 24 h. The results were observed by measuring the diameter. Taking 0.5% DMSO solution as a negative control, the antibacterial activity is expressed by the diameter of the inhibition zone. The inhibition zone ≥17 mm, sensitive; the inhibition zone of 15 mm-16 mm, intermediary; the inhibition zone ≤14 mm, drug resistance.

[2] = system: multi-resistant Staphylococcus aureus 575; assay: paper diffusion method drug sensitivity test, MRSA-575; settings: for Zone of Inhibition: MRSA-575, 30 μg/tablet paper disc (6.35 mm), LB plate, 37° C., 24 h; for inhibitory effect (in words): multi-drug resistant Staphylococcus aureus 575, 30 μg/tablet
Experimental: as §1, §2, §3, §4, §5, §6

[3] = system: multi-resistant Staphylococcus aureus 171; assay: paper diffusion method drug sensitivity test, MRSA-171; settings: for Zone of Inhibition: MRSA-171, 30 μg/tablet paper disc (6.35 mm), LB plate, 37° C., 24 h; for inhibitory effect (in words): multi-drug resistant Staphylococcus aureus 171, 30 μg/tablet
Experimental: as §1, §2, §3, §4, §5, §6

Structure (SMILES): O=C(O)CNC(=O)c1ccccc1 [Hippuric acid]
- Zone of Inhibition [1]: 0 mm
- inhibitory effect (in words) [1]: no inhibitory effect
- Zone of Inhibition [2]: 0 mm
- inhibitory effect (in words) [2]: no inhibitory effect
- Zone of Inhibition [3]: 0 mm
- inhibitory effect (in words) [3]: no inhibitory effect

Structure (SMILES): CN[C@H](CC(C)C)C(=O)N[C@H]1C(=O)N[C@@H](CC(N)=O)C(=O)N[C@H]2C(=O)N[C@H]3C(=O)N[C@H](C(=O)N[C@H](C(=O)O)c4cc(O)cc(O)c4-c4cc3ccc4O)[C@H](O)c3ccc(c(Cl)c3)Oc3cc2cc(c3O[C@@H]2O[C@H](CO)[C@@H](O)[C@H](O)[C@H]2O[C@H]2C[C@](C)(N)[C@H](O)[C@H](C)O2)Oc2ccc(cc2Cl)[C@H]1O [Vancomycin]
- Zone of Inhibition [1]: 23 mm
- Zone of Inhibition [2]: 17 mm
- Zone of Inhibition [3]: 15 mm

Structure (SMILES): C=C[C@]1(C)C[C@@H](OC(=O)CO)[C@]2(C)[C@H](C)CC[C@]3(CCC(=O)[C@H]32)[C@@H](C)[C@@H]1O [Pleuromutilin]
- Zone of Inhibition [1]: 0 mm
- inhibitory effect (in words) [1]: no inhibitory effect
- Zone of Inhibition [2]: 0 mm
- inhibitory effect (in words) [2]: no inhibitory effect
- Zone of Inhibition [3]: 0 mm
- inhibitory effect (in words) [3]: no inhibitory effect

Structure (SMILES): C=C[C@]1(C)C[C@@H](OC(=O)COC(=O)CNC(=O)c2ccccc2)[C@]2(C)CC[C@@H](C)[C@@]3(CCC(=O)[C@@H]23)[C@@H](C)[C@@H]1O [Pleuromutilin hippuric acid ester, (3aS,4R,5S,6S,8R,9R,9aR,12R)-5-hydroxy-4,6,9,12-tetramethyl-1-oxo-6-vinyldecahydro-3a,9-propanocyclopenta[8]annulen-8-yl 2-(2-benzamidoacetoxy)acetate]
- Zone of Inhibition [1]: 25 mm
- inhibitory effect (in words) [1]: strong inhibitory effects
- Zone of Inhibition [2]: 15 mm
- inhibitory effect (in words) [2]: strong inhibitory effects
- Zone of Inhibition [3]: 14 mm
- inhibitory effect (in words) [3]: strong inhibitory effects
